This note sets out measurements from ChEMBL document CHEMBL2413036, “Isoswinholide B and swinholide K, potently cytotoxic dimeric macrolides from Theonella swinhoei” (Bioorg Med Chem, 2013).

In experiment [1] the test system is HepG2. The experiment can be described thus: Antiproliferative activity against human HepG2 cells assessed as cell growth inhibition at 100 nM after 48 hrs by MTT assay relative to swinholide-A. The class given is functional. Background: Formazan colour is commonly taken as a measure of viable cells.
Experiment [2] relates to HepG2. The experiment can be described thus: Antiproliferative activity against human HepG2 cells after 48 hrs by MTT assay. It counts as functional, cell-based. The following applies: HepG2, 48 h.

The IC50 is the concentration that gives 50% inhibition. On to `CO[C@H]1C[C@H](CC[C@H](C)[C@H](O)[C@H](C)[C@H]2OC(=O)/C=C/C(C)=C/C[C@H](O)C[C@@H]3C=CC[C@@H](C[C@H](OC)[C@@H](C)[C@@H](O)C[C@@H](O)[C@H](C)[C@@H]([C@@H](C)[C@@H](O)[C@@H](C)CC[C@H]4C[C@H](OC)C[C@H](C)O4)OC(=O)/C=C/C(C)=C/C[C@H](O)C[C@@H]4C=CC[C@@H](C[C@H](O)[C@@H](C)[C@@H](O)C[C@@H](O)[C@@H]2C)O4)O3)O[C@@H](C)C1`, for which, in the experiment with HepG2 [1], the Efficacy came out at 45.35%. This molecule yielded an IC50 with HepG2 [2] of 30 nM.

As to `CO[C@H]1C[C@H](CC[C@H](C)[C@H](O)[C@H](C)[C@@H](O)[C@@H](C)[C@H]2C[C@H](O)[C@H](C)[C@@H](OC)C[C@@H]3CC=C[C@@H](C[C@@H](O)C/C=C(C)/C=C/C(=O)O[C@H]([C@@H](C)[C@@H](O)[C@@H](C)CC[C@H]4C[C@H](OC)C[C@H](C)O4)[C@@H](C)[C@H](O)C[C@H](O)[C@H](C)[C@@H](OC)C[C@@H]4CC=C[C@@H](C[C@@H](O)C/C=C(C)/C=C/C(=O)O2)O4)O3)O[C@@H](C)C1`, the Efficacy in the experiment on HepG2 [1] came to 7.52%. Also, the IC50 with HepG2 [2] is 1500 nM.

Consider `C=C1/C=C/C(=O)O[C@H]([C@@H](C)[C@@H](O)[C@@H](C)CC[C@H]2C[C@H](OC)C[C@H](C)O2)[C@@H](C)[C@H](O)C[C@H](O)[C@H](C)[C@@H](OC)C[C@@H]2CC=C[C@@H](C[C@@H](O)C/C=C(C)/C=C/C(=O)O[C@H]([C@@H](C)[C@@H](O)[C@@H](C)CC[C@H]3C[C@H](OC)C[C@H](C)O3)[C@@H](C)[C@H](O)C[C@H](O)[C@H](C)[C@@H](OC)C[C@@H]3CC=C[C@@H](C[C@@H](O)C[C@H]1O)O3)O2`, for which, in the experiment with HepG2 [1], the Efficacy turned out to be 42.67%. Besides, half-maximal inhibition with HepG2 [2] (IC50) was put at 15 nM.

For `CO[C@H]1C[C@H](CC[C@H](C)[C@H](O)[C@H](C)[C@H]2OC(=O)/C=C/C(C)=C/C[C@H](O)C[C@@H]3CCC[C@H](C[C@H](OC)[C@@H](C)[C@@H](O)C[C@@H](O)[C@H](C)[C@H](O)[C@@H](C)[C@H]([C@@H](C)CC[C@H]4C[C@H](OC)C[C@H](C)O4)OC(=O)/C=C/C(C)=C/C[C@H](O)C[C@@H]4C=CC[C@H](C[C@H](OC)[C@@H](C)[C@@H](O)C[C@@H](O)[C@@H]2C)O4)O3)O[C@@H](C)C1` [ISOSWINHOLIDE A], the Efficacy in the experiment with HepG2 [1] stood at 16.28%. Besides, half-maximal inhibition in the experiment with HepG2 [2] (IC50) was put at 35 nM.

`CO[C@@H]1C[C@@H](O)C[C@@H](O)[C@H](C)[C@@H]([C@@H](C)[C@@H](O)[C@@H](C)CC[C@H]2C[C@H](OC)C[C@H](C)O2)OC(=O)/C=C/C(C)=C/C[C@H](O)C[C@@H]2C=CC[C@H](C[C@H](OC)[C@@H](C)[C@@H](O)C[C@@H](O)[C@H](C)[C@@H]([C@@H](C)[C@@H](O)[C@@H](C)CC[C@H]3C[C@H](OC)C[C@H](C)O3)OC(=O)/C=C/C(C)=C/C[C@H](O)C[C@@H]3CCC[C@H](C1)O3)O2` [SWINHOLIDE B]: the Efficacy in the experiment on HepG2 [1] is recorded as 89.38%. Further, it took 25 nM to reach half-maximal inhibition in the experiment with HepG2 [2] (IC50).

For `CO[C@H]1C[C@H](CC[C@H](C)[C@H](O)[C@H](C)[C@H]2OC(=O)/C=C/C(C)=C/C[C@H](O)C[C@@H]3C=CC[C@@H](C[C@H](OC)[C@@H](C)[C@@H](O)C[C@@H](O)[C@H](C)[C@@H]([C@@H](C)[C@@H](O)[C@@H](C)CC[C@H]4C[C@H](OC)C[C@H](C)O4)OC(=O)/C=C/C(C)=C/C[C@H](O)C[C@@H]4C=CC[C@@H](C[C@H](OC)[C@@H](C)[C@@H](O)C[C@@H](O)[C@@H]2C)O4)O3)O[C@@H](C)C1` [Swinholide A], in the experiment on HepG2 [2], the IC50 was 20 nM.
